For assay [1], the system named is ISC-enriched organoids. The assay is described as follows: Primary screen, 384-well 2.5-D organoid differentiation (ENR+CD, 6 days): basal lysozyme secretion (LYZ.NS). The note with it: primary screen; for Dose.FC.LYZ.NS: ENR+CD 6 days, FC vs plate median; for Z.LYZ.NS: standard z score of FC. Type of assay: cell-based, murine. From the text:
(§1) High-throughput screening.

Assay [2] concerns ISC-enriched organoids. The assay is described as follows: Primary screen, 384-well 2.5-D organoid differentiation (ENR+CD, 6 days): carbachol-induced lysozyme secretion (LYZ.S). The note with it: primary screen, ENR+CD 6 days, FC vs plate median. Type of assay: cell-based, murine.
From the text: as §1

Assay [3] deals with ISC-enriched organoids. The assay is described as follows: Primary screen, 384-well 2.5-D organoid differentiation (ENR+CD, 6 days, Target Selective Inhibitor Library, vs whole-plate median): ATP (CellTiter-Glo 3D, CTG). The note with it: primary screen; for Dose.FC.CTG: ENR+CD 6 days, FC vs plate median; for Z.CTG: standard z score of FC.

Turning to `O=C1C(=O)N(Cc2ccc(Cl)c(Cl)c2)c2ccccc21` [Apoptosis Activator 2], the Dose.FC.LYZ.NS is 0.149 log 2 fold change in assay [1] (dose 0.08 uM), 0.033 log 2 fold change in assay [1] (dose 0.40 uM), −0.006 log 2 fold change in assay [1] (dose 2.00 uM) and −0.199 log 2 fold change in assay [1] (dose 10.00 uM). For the same compound, the Z.LYZ.NS is listed as 1.302 in assay [1] (dose 0.08 uM), 0.290 in assay [1] (dose 0.40 uM), −0.049 in assay [1] (dose 2.00 uM) and −1.734 in assay [1] (dose 10.00 uM). Moreover, the Dose.FC.LYZ.S in assay [2] (dose 0.08 uM) is given as 0.132 log 2 fold change; in assay [2] (dose 0.40 uM), 0.073 log 2 fold change; in assay [2] (dose 2.00 uM) it was −0.009 log 2 fold change; in assay [2] (dose 10.00 uM) it was −0.252 log 2 fold change. Besides, the Dose.FC.CTG in assay [3] (dose 0.08 uM) is 0.304 log 2 fold change; in assay [3] (dose 0.40 uM), 0.262 log 2 fold change; in assay [3] (dose 2.00 uM) it was 0.082 log 2 fold change; in assay [3] (dose 10.00 uM) it was −0.158 log 2 fold change. Besides, the Z.CTG in assay [3] (dose 0.08 uM) was 0.725; in assay [3] (dose 0.40 uM), 0.626; in assay [3] (dose 2.00 uM), 0.195; in assay [3] (dose 10.00 uM) it was −0.378.

Take `O=C(O)c1cccc(-c2noc(-c3ccccc3F)n2)c1` [Ataluren (PTC124)]: the Dose.FC.LYZ.NS in assay [1] (dose 0.08 uM) came to 0.029 log 2 fold change; in assay [1] (dose 0.40 uM) it was 0.042 log 2 fold change; in assay [1] (dose 2.00 uM) it was 0.131 log 2 fold change; in assay [1] (dose 10.00 uM), 0.009 log 2 fold change. Moreover, the Z.LYZ.NS is 0.253 in assay [1] (dose 0.08 uM), 0.362 in assay [1] (dose 0.40 uM), 1.140 in assay [1] (dose 2.00 uM) and 0.077 in assay [1] (dose 10.00 uM). In addition, the Dose.FC.LYZ.S in assay [2] (dose 0.08 uM) amounted to 0.051 log 2 fold change; in assay [2] (dose 0.40 uM), 0.034 log 2 fold change; in assay [2] (dose 2.00 uM), 0.058 log 2 fold change; in assay [2] (dose 10.00 uM), 0.005 log 2 fold change. Also, the Dose.FC.CTG in assay [3] (dose 0.08 uM) is reported as 0.267 log 2 fold change; in assay [3] (dose 0.40 uM) it was −0.340 log 2 fold change; in assay [3] (dose 2.00 uM), −0.042 log 2 fold change; in assay [3] (dose 10.00 uM) it was 0.006 log 2 fold change. The Z.CTG in assay [3] (dose 0.08 uM) is given as 0.639; in assay [3] (dose 0.40 uM), −0.813; in assay [3] (dose 2.00 uM), −0.100; in assay [3] (dose 10.00 uM), 0.013.

With `CN(C)C(=O)Nc1cccc(-c2ccc(N(C)C)cc2)c1` [Atglistatin], the Dose.FC.LYZ.NS is listed as 0.069 log 2 fold change in assay [1] (dose 0.08 uM), 0.135 log 2 fold change in assay [1] (dose 0.40 uM), 0.070 log 2 fold change in assay [1] (dose 2.00 uM) and −0.016 log 2 fold change in assay [1] (dose 10.00 uM). For the same compound, the Z.LYZ.NS in assay [1] (dose 0.08 uM) was 0.604; in assay [1] (dose 0.40 uM) it was 1.176; in assay [1] (dose 2.00 uM) it was 0.613; in assay [1] (dose 10.00 uM), −0.142. The Dose.FC.LYZ.S is reported as 0.028 log 2 fold change in assay [2] (dose 0.08 uM), −0.035 log 2 fold change in assay [2] (dose 0.40 uM), 0.026 log 2 fold change in assay [2] (dose 2.00 uM) and 0.012 log 2 fold change in assay [2] (dose 10.00 uM). Also, the Dose.FC.CTG is on record as 0.057 log 2 fold change in assay [3] (dose 0.08 uM), 0.004 log 2 fold change in assay [3] (dose 0.40 uM), −0.045 log 2 fold change in assay [3] (dose 2.00 uM) and −0.431 log 2 fold change in assay [3] (dose 10.00 uM). For the same compound, the Z.CTG in assay [3] (dose 0.08 uM) is listed as 0.137; in assay [3] (dose 0.40 uM) it was 0.009; in assay [3] (dose 2.00 uM) it was −0.108; in assay [3] (dose 10.00 uM), −1.031.

Turning to `CC(C)c1c(C(=O)Nc2ccccc2)c(-c2ccccc2)c(-c2ccc(F)cc2)n1CC[C@@H](O)C[C@@H](O)CC(=O)[O-].CC(C)c1c(C(=O)Nc2ccccc2)c(-c2ccccc2)c(-c2ccc(F)cc2)n1CC[C@@H](O)C[C@@H](O)CC(=O)[O-].[Ca+2]` [Atorvastatin Calcium], the Dose.FC.LYZ.NS is reported as −0.009 log 2 fold change in assay [1] (dose 0.08 uM), 0.007 log 2 fold change in assay [1] (dose 0.40 uM), −0.247 log 2 fold change in assay [1] (dose 2.00 uM) and −0.235 log 2 fold change in assay [1] (dose 10.00 uM). The Z.LYZ.NS is on record as −0.077 in assay [1] (dose 0.08 uM), 0.062 in assay [1] (dose 0.40 uM), −2.148 in assay [1] (dose 2.00 uM) and −2.045 in assay [1] (dose 10.00 uM). The Dose.FC.LYZ.S is given as 0.022 log 2 fold change in assay [2] (dose 0.08 uM), −0.062 log 2 fold change in assay [2] (dose 0.40 uM), −0.354 log 2 fold change in assay [2] (dose 2.00 uM) and −0.305 log 2 fold change in assay [2] (dose 10.00 uM). The Dose.FC.CTG is reported as −0.129 log 2 fold change in assay [3] (dose 0.08 uM), −0.348 log 2 fold change in assay [3] (dose 0.40 uM), −1.085 log 2 fold change in assay [3] (dose 2.00 uM) and −1.583 log 2 fold change in assay [3] (dose 10.00 uM). Besides, the Z.CTG is reported as −0.309 in assay [3] (dose 0.08 uM), −0.831 in assay [3] (dose 0.40 uM), −2.591 in assay [3] (dose 2.00 uM) and −3.780 in assay [3] (dose 10.00 uM).

Take `CCN1CCN(c2ccc(Nc3cc(N(C)C(=O)Nc4c(Cl)c(OC)cc(OC)c4Cl)ncn3)cc2)CC1` [BGJ398 (NVP-BGJ398)]: the Dose.FC.LYZ.NS in assay [1] (dose 0.08 uM) is given as −0.002 log 2 fold change; in assay [1] (dose 0.40 uM), −0.060 log 2 fold change; in assay [1] (dose 2.00 uM), −0.052 log 2 fold change; in assay [1] (dose 10.00 uM), −0.269 log 2 fold change. Besides, the Z.LYZ.NS is −0.017 in assay [1] (dose 0.08 uM), −0.520 in assay [1] (dose 0.40 uM), −0.450 in assay [1] (dose 2.00 uM) and −2.345 in assay [1] (dose 10.00 uM). For the same compound, the Dose.FC.LYZ.S is given as −0.036 log 2 fold change in assay [2] (dose 0.08 uM), 0.002 log 2 fold change in assay [2] (dose 0.40 uM), −0.062 log 2 fold change in assay [2] (dose 2.00 uM) and −0.350 log 2 fold change in assay [2] (dose 10.00 uM). The Dose.FC.CTG in assay [3] (dose 0.08 uM) is recorded as −0.054 log 2 fold change; in assay [3] (dose 0.40 uM) it was 0.026 log 2 fold change; in assay [3] (dose 2.00 uM) it was −0.185 log 2 fold change; in assay [3] (dose 10.00 uM), −1.500 log 2 fold change. The Z.CTG in assay [3] (dose 0.08 uM) is reported as −0.128; in assay [3] (dose 0.40 uM), 0.063; in assay [3] (dose 2.00 uM) it was −0.442; in assay [3] (dose 10.00 uM), −3.583.

Consider `CC(C)CCN1c2nc(Nc3cc(F)c(O)c(F)c3)ncc2N(C)C(=O)C1C` (stereo not shown) [BI-D1870], for which the Dose.FC.LYZ.NS in assay [1] (dose 0.08 uM) is 0.141 log 2 fold change; in assay [1] (dose 0.40 uM), 0.126 log 2 fold change; in assay [1] (dose 2.00 uM), −0.066 log 2 fold change; in assay [1] (dose 10.00 uM), −0.285 log 2 fold change. Further, the Z.LYZ.NS in assay [1] (dose 0.08 uM) is recorded as 1.225; in assay [1] (dose 0.40 uM), 1.099; in assay [1] (dose 2.00 uM), −0.574; in assay [1] (dose 10.00 uM), −2.483. In addition, the Dose.FC.LYZ.S in assay [2] (dose 0.08 uM) is reported as 0.162 log 2 fold change; in assay [2] (dose 0.40 uM) it was 0.158 log 2 fold change; in assay [2] (dose 2.00 uM) it was 0.008 log 2 fold change; in assay [2] (dose 10.00 uM), −0.378 log 2 fold change. Besides, the Dose.FC.CTG in assay [3] (dose 0.08 uM) was 0.186 log 2 fold change; in assay [3] (dose 0.40 uM) it was 0.029 log 2 fold change; in assay [3] (dose 2.00 uM), −0.012 log 2 fold change; in assay [3] (dose 10.00 uM), −0.700 log 2 fold change. For the same compound, the Z.CTG in assay [3] (dose 0.08 uM) is listed as 0.444; in assay [3] (dose 0.40 uM), 0.069; in assay [3] (dose 2.00 uM), −0.028; in assay [3] (dose 10.00 uM), −1.673.

For the compound `C/C(=C\C(=O)Nc1ccccc1C(=O)O)c1ccc2ccccc2c1` [BIBR 1532], the Dose.FC.LYZ.NS in assay [1] (dose 0.08 uM) is reported as 0.032 log 2 fold change; in assay [1] (dose 0.40 uM), 0.043 log 2 fold change; in assay [1] (dose 2.00 uM), −0.013 log 2 fold change; in assay [1] (dose 10.00 uM), −0.062 log 2 fold change. The Z.LYZ.NS was 0.282 in assay [1] (dose 0.08 uM), 0.377 in assay [1] (dose 0.40 uM), −0.117 in assay [1] (dose 2.00 uM) and −0.536 in assay [1] (dose 10.00 uM). Besides, the Dose.FC.LYZ.S in assay [2] (dose 0.08 uM) is listed as 0.028 log 2 fold change; in assay [2] (dose 0.40 uM), 0.107 log 2 fold change; in assay [2] (dose 2.00 uM) it was −0.081 log 2 fold change; in assay [2] (dose 10.00 uM), −0.114 log 2 fold change. Also, the Dose.FC.CTG is 0.223 log 2 fold change in assay [3] (dose 0.08 uM), −0.047 log 2 fold change in assay [3] (dose 0.40 uM), −0.034 log 2 fold change in assay [3] (dose 2.00 uM) and 0.030 log 2 fold change in assay [3] (dose 10.00 uM). For the same compound, the Z.CTG in assay [3] (dose 0.08 uM) is 0.533; in assay [3] (dose 0.40 uM) it was −0.113; in assay [3] (dose 2.00 uM), −0.080; in assay [3] (dose 10.00 uM), 0.072.

Regarding `COc1ccc2c(c1)c(CC(=O)N1CCOCC1)c(C)n2C(=O)c1ccc(Cl)cc1` [BML-190], the Dose.FC.LYZ.NS in assay [1] (dose 0.08 uM) is reported as 0.072 log 2 fold change; in assay [1] (dose 0.40 uM), −0.017 log 2 fold change; in assay [1] (dose 2.00 uM), 0.116 log 2 fold change; in assay [1] (dose 10.00 uM) it was 0.209 log 2 fold change. The Z.LYZ.NS in assay [1] (dose 0.08 uM) is 0.623; in assay [1] (dose 0.40 uM), −0.152; in assay [1] (dose 2.00 uM) it was 1.011; in assay [1] (dose 10.00 uM), 1.823. Further, the Dose.FC.LYZ.S in assay [2] (dose 0.08 uM) was 0.060 log 2 fold change; in assay [2] (dose 0.40 uM), −0.037 log 2 fold change; in assay [2] (dose 2.00 uM) it was 0.017 log 2 fold change; in assay [2] (dose 10.00 uM) it was 0.067 log 2 fold change. Further, the Dose.FC.CTG in assay [3] (dose 0.08 uM) was −0.003 log 2 fold change; in assay [3] (dose 0.40 uM) it was −0.099 log 2 fold change; in assay [3] (dose 2.00 uM), −0.106 log 2 fold change; in assay [3] (dose 10.00 uM) it was −0.106 log 2 fold change. The Z.CTG in assay [3] (dose 0.08 uM) was −0.007; in assay [3] (dose 0.40 uM) it was −0.237; in assay [3] (dose 2.00 uM), −0.254; in assay [3] (dose 10.00 uM), −0.254.

Values taken from US20230398130A1, “METHODS AND COMPOSITIONS FOR DIFFERENTIATING STEM CELLS” (Massachusetts Institute of Technology, priority 2020, published 2023).
